{
  "source": "patent US20220217999A1",
  "about": "“METHOD FOR PROTECTING PROTEIN FROM HEAT DAMAGE AND REDUCING RUMEN DEGRADABILITY OF METHIONINE” (AJINOMOTO CO., INC., priority 2019, published 2022)",
  "conditions": "for 16 hr. RUP, % of CP / Calculated IAP (intestinally available protein), g/100 g distillers grains / RUP digestibility, g/100 g RUP / RUP, % of DG Protein / Undigested CP, % of CP / Undigested CP, % of feed DM: 0.5 h 128° C. autoclave",
  "experimental": "Using a sample of wet distillers grains (“DG”) was obtained from a commercial ethanol plant, treatments were applied in duplicates. The DG was treated with the three levels of DL-methionine shown in Table 1 and heated in an autoclave for 0.5 hour at 128° C. Following heat treatment, samples were dried in a forced oven set at 40° C. Dried samples were composited within treatment and analyzed for RUP and undigested total tract protein using a standard method.",
  "note": "Like-named read-outs stand apart in the source and are kept apart here.",
  "data": [
    {"smiles": "CSCCC(N)C(=O)O", "note": "(racemic) [DL-Methionine]", "values": [
      {"measurement": "16 hr. RUP, % of CP", "setting": "1.0 wt. % DL-Methionine added to distillers grains", "result": "69.2 % of CP"},
      {"measurement": "Calculated IAP (intestinally available protein), g/100 g distillers grains", "setting": "1.0 wt. % DL-Methionine", "result": 15.7, "unit": "g/100 g distillers grains"},
      {"measurement": "RUP digestibility, g/100 g RUP", "setting": "1.0 wt. % DL-Methionine", "result": 72.1, "unit": "g/100 g RUP"},
      {"measurement": "RUP, % of DG Protein", "setting": "1.0 wt. % DL-Methionine", "result": "72.8 % of DG Protein"},
      {"measurement": "Undigested CP, % of CP", "setting": "1.0 wt. % DL-Methionine", "result": "19.3 % of CP"},
      {"measurement": "Undigested CP, % of feed DM", "setting": "1.0 wt. % DL-Methionine", "result": "6.02 % of feed DM"},
      {"measurement": "16 hr. RUP, % of CP", "setting": "1.5 wt. % DL-Methionine added to distillers grains", "result": "71.2 % of CP"},
      {"measurement": "Calculated IAP (intestinally available protein), g/100 g distillers grains", "setting": "1.5 wt. % DL-Methionine", "result": 15.2, "unit": "g/100 g distillers grains"},
      {"measurement": "RUP digestibility, g/100 g RUP", "setting": "1.5 wt. % DL-Methionine", "result": 67.8, "unit": "g/100 g RUP"},
      {"measurement": "RUP, % of DG Protein", "setting": "1.5 wt. % DL-Methionine", "result": "74.8 % of DG Protein"},
      {"measurement": "Undigested CP, % of CP", "setting": "1.5 wt. % DL-Methionine", "result": "22.9 % of CP"},
      {"measurement": "Undigested CP, % of feed DM", "setting": "1.5 wt. % DL-Methionine", "result": "7.08 % of feed DM"},
      {"measurement": "calculated digestibility of RUP, higher compared with Control", "setting": "2% DL-methionine", "result": 13.9, "unit": "%"},
      {"measurement": "total metabolically available protein, higher compared with Control", "setting": "2% DL-methionine sample", "result": 17, "unit": "%"},
      {"measurement": "16 hr. RUP, % of CP", "setting": "2.0 wt. % DL-Methionine added to distillers grains", "result": "67.2 % of CP"},
      {"measurement": "Calculated IAP (intestinally available protein), g/100 g distillers grains", "setting": "2.0 wt. % DL-Methionine", "result": 16.0, "unit": "g/100 g distillers grains"},
      {"measurement": "RUP digestibility, g/100 g RUP", "setting": "2.0 wt. % DL-Methionine", "result": 72.7, "unit": "g/100 g RUP"},
      {"measurement": "RUP, % of DG Protein", "setting": "2.0 wt. % DL-Methionine", "result": "73.3 % of DG Protein"},
      {"measurement": "Undigested CP, % of CP", "setting": "2.0 wt. % DL-Methionine", "result": "18.3 % of CP"},
      {"measurement": "Undigested CP, % of feed DM", "setting": "2.0 wt. % DL-Methionine", "result": "5.85 % of feed DM"},
      {"measurement": "total un-digested protein, lower compared with Control", "setting": "highest level of DL-methionine", "result": 28, "unit": "%"}
    ]}
  ]
}
